Laboratory results as given in article PMC10289903 (Investigational New Drugs, 2023).
Read-outs that look alike come from different tables or passages of the source.

Test system: patients with locally advanced or metastatic solid tumors
Source text: This was a Phase Ib, multicenter, open-label, dose-finding clinical trial (NCT02610075). […] Three types of treatment schedules were investigated: cohorts bid 1, bid 2, qd 1.1, qd 2.1 and qd 3.1 received bid or qd treatment on a 5/9 schedule (5 days on treatment, followed by 9 days off) on a 14-day cycle. Cohorts qd 1.2, qd 2.2, and qd 3.2 received treatment on a 5/2 schedule (5 days on followed by 2 days off for 2 of 3 weeks) in a 21-day cycle. Cohorts qd 2.3 and qd 3.3 received treatment on a weekly 5/2 schedule in a 21-day cycle (Table 1). The highest dose level(s) at which less than one-third of evaluable patients (none of 3 patients or 1 of 6 patients) experienced a dose-limiting toxicity (DLT) was declared the MTD.
The per protocol analysis set was defined as a subset of the full analysis set, excluding subjects having an important protocol deviation, to be used for analyses of efficacy endpoints if appropriate.

[1] = qd 2.3: 250 mg qd 5/2 weekly (n=10)

SMILES: C=CCn1c(=O)c2cnc(Nc3ccc(N4CCN(C)CC4)cc3)nc2n1-c1cccc(C(C)(C)O)n1 [adavosertib, Adavosertib]
- Thrombocytopenia (treatment-related AE) (qd 2.1: 250 mg qd 5/9 (n=4)): 0 n (%)
- Urinary tract infection (treatment-emergent AE) (qd 2.1: 250 mg qd 5/9 (n=4)): 0 n (%)
- Vomiting (treatment-emergent AE) (qd 2.1: 250 mg qd 5/9 (n=4)): 0 n (%)
- Vomiting (treatment-related AE) (qd 2.1: 250 mg qd 5/9 (n=4)): 0 n (%)
- Abdominal pain (treatment-emergent AE) (qd 2.2: 250 mg qd 5/2 (n=3)): 0 n (%)
- Abdominal pain (treatment-related AE) (qd 2.2: 250 mg qd 5/2 (n=3)): 0 n (%)
- Alanine aminotransferase increased (treatment-emergent AE) (qd 2.2: 250 mg qd 5/2 (n=3)): 1 (33.3) n (%)
- Anemia (treatment-emergent AE) (qd 2.2: 250 mg qd 5/2 (n=3)): 1 (33.3) n (%)
- Anemia (treatment-related AE) (qd 2.2: 250 mg qd 5/2 (n=3)): 1 (33.3) n (%)
- Any AE (treatment-emergent) (qd 2.2: 250 mg qd 5/2 (n=3)): 3 (100) n (%)
- Any grade ≥ 3 AE (qd 2.2: 250 mg qd 5/2 (n=3)): 3 (100.0) n (%)
- Any treatment-related AE (qd 2.2: 250 mg qd 5/2 (n=3)): 3 (100) n (%)
- Any treatment-related grade ≥ 3 AE (qd 2.2: 250 mg qd 5/2 (n=3)): 3 (100.0) n (%)
- Asthenia (treatment-emergent AE) (qd 2.2: 250 mg qd 5/2 (n=3)): 1 (33.3) n (%)
- Asthenia (treatment-related AE) (qd 2.2: 250 mg qd 5/2 (n=3)): 1 (33.3) n (%)
- Back pain (treatment-emergent AE) (qd 2.2: 250 mg qd 5/2 (n=3)): 1 (33.3) n (%)
- Constipation (treatment-emergent AE) (qd 2.2: 250 mg qd 5/2 (n=3)): 1 (33.3) n (%)
- Constipation (treatment-related AE) (qd 2.2: 250 mg qd 5/2 (n=3)): 1 (33.3) n (%)
- Cough (treatment-emergent AE) (qd 2.2: 250 mg qd 5/2 (n=3)): 1 (33.3) n (%)
- Decreased appetite (treatment-emergent AE) (qd 2.2: 250 mg qd 5/2 (n=3)): 1 (33.3) n (%)
- Decreased appetite (treatment-related AE) (qd 2.2: 250 mg qd 5/2 (n=3)): 0 n (%)
- Dehydration (treatment-emergent AE) (qd 2.2: 250 mg qd 5/2 (n=3)): 2 (66.7) n (%)
- Dehydration (treatment-related AE) (qd 2.2: 250 mg qd 5/2 (n=3)): 1 (33.3) n (%)
- Diarrhea (treatment-emergent AE) (qd 2.2: 250 mg qd 5/2 (n=3)): 2 (66.7) n (%)
- Diarrhea (treatment-related AE) (qd 2.2: 250 mg qd 5/2 (n=3)): 2 (66.7) n (%)
- Dizziness (treatment-emergent AE) (qd 2.2: 250 mg qd 5/2 (n=3)): 0 n (%)
- Dyspepsia (treatment-emergent AE) (qd 2.2: 250 mg qd 5/2 (n=3)): 0 n (%)
- Dyspepsia (treatment-related AE) (qd 2.2: 250 mg qd 5/2 (n=3)): 0 n (%)
- Dyspnea (treatment-emergent AE) (qd 2.2: 250 mg qd 5/2 (n=3)): 0 n (%)
- Edema peripheral (treatment-emergent AE) (qd 2.2: 250 mg qd 5/2 (n=3)): 0 n (%)
- Fall (treatment-emergent AE) (qd 2.2: 250 mg qd 5/2 (n=3)): 1 (33.3) n (%)
- Fatigue (treatment-emergent AE) (qd 2.2: 250 mg qd 5/2 (n=3)): 2 (66.7) n (%)
- Fatigue (treatment-related AE) (qd 2.2: 250 mg qd 5/2 (n=3)): 2 (66.7) n (%)
- Headache (treatment-emergent AE) (qd 2.2: 250 mg qd 5/2 (n=3)): 0 n (%)
- Hypokalemia (treatment-emergent AE) (qd 2.2: 250 mg qd 5/2 (n=3)): 1 (33.3) n (%)
- Insomnia (treatment-emergent AE) (qd 2.2: 250 mg qd 5/2 (n=3)): 0 n (%)
- Muscle spasms (treatment-emergent AE) (qd 2.2: 250 mg qd 5/2 (n=3)): 1 (33.3) n (%)
- Myalgia (treatment-emergent AE) (qd 2.2: 250 mg qd 5/2 (n=3)): 0 n (%)
- Myalgia (treatment-related AE) (qd 2.2: 250 mg qd 5/2 (n=3)): 0 n (%)
- Nausea (treatment-emergent AE) (qd 2.2: 250 mg qd 5/2 (n=3)): 2 (66.7) n (%)
- Nausea (treatment-related AE) (qd 2.2: 250 mg qd 5/2 (n=3)): 2 (66.7) n (%)
- Neutropenia (treatment-emergent AE) (qd 2.2: 250 mg qd 5/2 (n=3)): 0 n (%)
- Neutropenia (treatment-related AE) (qd 2.2: 250 mg qd 5/2 (n=3)): 0 n (%)
- Pneumonia (treatment-emergent AE) (qd 2.2: 250 mg qd 5/2 (n=3)): 1 (33.3) n (%)
- Pyrexia (treatment-emergent AE) (qd 2.2: 250 mg qd 5/2 (n=3)): 2 (66.7) n (%)
- Rash (treatment-emergent AE) (qd 2.2: 250 mg qd 5/2 (n=3)): 1 (33.3) n (%)
- Thrombocytopenia (treatment-emergent AE) (qd 2.2: 250 mg qd 5/2 (n=3)): 1 (33.3) n (%)
- Thrombocytopenia (treatment-related AE) (qd 2.2: 250 mg qd 5/2 (n=3)): 1 (33.3) n (%)
- Urinary tract infection (treatment-emergent AE) (qd 2.2: 250 mg qd 5/2 (n=3)): 1 (33.3) n (%)
- Vomiting (treatment-emergent AE) (qd 2.2: 250 mg qd 5/2 (n=3)): 2 (66.7) n (%)
- Vomiting (treatment-related AE) (qd 2.2: 250 mg qd 5/2 (n=3)): 2 (66.7) n (%)
- Abdominal pain (treatment-emergent AE) [1]: 2 (20.0) n (%)
- Abdominal pain (treatment-related AE) [1]: 0 n (%)
- Alanine aminotransferase increased (treatment-emergent AE) [1]: 1 (10.0) n (%)
- Anemia (treatment-emergent AE) [1]: 2 (20.0) n (%)
- Anemia (treatment-related AE) [1]: 1 (10.0) n (%)
- Any AE (treatment-emergent) [1]: 8 (80.0) n (%)
- Any grade ≥ 3 AE [1]: 5 (50.0) n (%)
- Any treatment-related AE [1]: 8 (80.0) n (%)
- Any treatment-related grade ≥ 3 AE [1]: 4 (40.0) n (%)
- Asthenia (treatment-emergent AE) [1]: 0 n (%)
- Asthenia (treatment-related AE) [1]: 0 n (%)
- Back pain (treatment-emergent AE) [1]: 2 (20.0) n (%)
- Constipation (treatment-emergent AE) [1]: 2 (20.0) n (%)
- Constipation (treatment-related AE) [1]: 2 (20.0) n (%)
- Cough (treatment-emergent AE) [1]: 0 n (%)
- Decreased appetite (treatment-emergent AE) [1]: 3 (30.0) n (%)
- Decreased appetite (treatment-related AE) [1]: 2 (20.0) n (%)
- Dehydration (treatment-emergent AE) [1]: 5 (50.0) n (%)
- Dehydration (treatment-related AE) [1]: 2 (20.0) n (%)
- Diarrhea (treatment-emergent AE) [1]: 7 (70.0) n (%)
- Diarrhea (treatment-related AE) [1]: 7 (70.0) n (%)
- Dizziness (treatment-emergent AE) [1]: 2 (20.0) n (%)
- Dyspepsia (treatment-emergent AE) [1]: 0 n (%)
- Dyspepsia (treatment-related AE) [1]: 0 n (%)
- Dyspnea (treatment-emergent AE) [1]: 0 n (%)
- Edema peripheral (treatment-emergent AE) [1]: 2 (20.0) n (%)
- Fall (treatment-emergent AE) [1]: 2 (20.0) n (%)
- Fatigue (treatment-emergent AE) [1]: 3 (30.0) n (%)
- Fatigue (treatment-related AE) [1]: 2 (20.0) n (%)
- Headache (treatment-emergent AE) [1]: 0 n (%)
- Hypokalemia (treatment-emergent AE) [1]: 3 (30.0) n (%)
- Insomnia (treatment-emergent AE) [1]: 3 (30.0) n (%)
- Muscle spasms (treatment-emergent AE) [1]: 1 (10.0) n (%)
- Myalgia (treatment-emergent AE) [1]: 2 (20.0) n (%)
- Myalgia (treatment-related AE) [1]: 2 (20.0) n (%)
- Nausea (treatment-emergent AE) [1]: 3 (30.0) n (%)
- Nausea (treatment-related AE) [1]: 2 (20.0) n (%)
- Neutropenia (treatment-emergent AE) [1]: 1 (10.0) n (%)
- Neutropenia (treatment-related AE) [1]: 1 (10.0) n (%)
- Pneumonia (treatment-emergent AE) [1]: 1 (10.0) n (%)
- Pyrexia (treatment-emergent AE) [1]: 0 n (%)
- Rash (treatment-emergent AE) [1]: 2 (20.0) n (%)
- Thrombocytopenia (treatment-emergent AE) [1]: 3 (30.0) n (%)
- Thrombocytopenia (treatment-related AE) [1]: 3 (30.0) n (%)
- Urinary tract infection (treatment-emergent AE) [1]: 1 (10.0) n (%)
- Vomiting (treatment-emergent AE) [1]: 2 (20.0) n (%)
- Vomiting (treatment-related AE) [1]: 1 (10.0) n (%)
- Abdominal pain (treatment-emergent AE) (qd 3.1: 300 mg qd 5/9 (n=4)): 1 (25.0) n (%)
- Abdominal pain (treatment-related AE) (qd 3.1: 300 mg qd 5/9 (n=4)): 1 (25.0) n (%)
- Alanine aminotransferase increased (treatment-emergent AE) (qd 3.1: 300 mg qd 5/9 (n=4)): 0 n (%)
- Anemia (treatment-emergent AE) (qd 3.1: 300 mg qd 5/9 (n=4)): 1 (25.0) n (%)
- Anemia (treatment-related AE) (qd 3.1: 300 mg qd 5/9 (n=4)): 0 n (%)
- Any AE (treatment-emergent) (qd 3.1: 300 mg qd 5/9 (n=4)): 4 (100) n (%)
- Any grade ≥ 3 AE (qd 3.1: 300 mg qd 5/9 (n=4)): 3 (75.0) n (%)
- Any treatment-related AE (qd 3.1: 300 mg qd 5/9 (n=4)): 2 (50.0) n (%)
- Any treatment-related grade ≥ 3 AE (qd 3.1: 300 mg qd 5/9 (n=4)): 1 (25.0) n (%)
- Asthenia (treatment-emergent AE) (qd 3.1: 300 mg qd 5/9 (n=4)): 0 n (%)
- Asthenia (treatment-related AE) (qd 3.1: 300 mg qd 5/9 (n=4)): 0 n (%)
- Back pain (treatment-emergent AE) (qd 3.1: 300 mg qd 5/9 (n=4)): 1 (25.0) n (%)
- Constipation (treatment-emergent AE) (qd 3.1: 300 mg qd 5/9 (n=4)): 1 (25.0) n (%)
- Constipation (treatment-related AE) (qd 3.1: 300 mg qd 5/9 (n=4)): 0 n (%)
- Cough (treatment-emergent AE) (qd 3.1: 300 mg qd 5/9 (n=4)): 1 (25.0) n (%)
- Decreased appetite (treatment-emergent AE) (qd 3.1: 300 mg qd 5/9 (n=4)): 0 n (%)
- Decreased appetite (treatment-related AE) (qd 3.1: 300 mg qd 5/9 (n=4)): 0 n (%)
